For one compound, IC50 results are on record in US20230248717A1, “N-(3-HYDROXYPYRIDINE-2-CARBONYL)GLYCINE-BASED ANTITUMOR DRUG SENSITIZER AND APPLICATION THEREOF” (ZHEJIANG UNIVERSITY, priority 2019, published 2023).

For assay [1], the system named is MC38 mouse colon cancer cells. As to the kind of experiment: Cytotoxicity (MTT) in combination with DOX. It is filed as cell-based. To be noted: MC-38, 48 h, sensitizer 5 μg/mL in the combination.
Procedure: (§1) CT26 cells (MC38 cells, 4T1 cells, B16FIO cells, HePa1-6 cells, H22 cells, LLC cells, MB49 cells, P388 cells, C6 cells, BXPC-3 cells, Hela cells, MDA-MB-231 cells, A2780 cells. PC3 cells. HepG2 cells, and HGC-27 cells) were cultured at 5,000 cells/well in a 96-well plate, 100 μL of a medium was added to each well, and the cells were incubated in a 37° C. constant-temperature incubator with 5% CO2 and 95% humidity for 24 h. 100 μL of different concentrations of drugs (DOX: 0.01 μg/mL to 10 μg/mL; PTX: 0.01 μg/mL to 50 μg/mL; Cela: 0.05 μg/mL to 1 μg/mL; sensitizer: 5 μg/mL) were added to each well, while 100 lit of a medium solution was added to the blank group. After culturing for 48 h, centrifugation was conducted at 1,100 rpm for 6 min, the medium in each well was discarded, 100 μL of an 11,11T working solution was added, and the culturing was continued for 3 h. Centrifugation was conducted at 3,300 rpm. for 5 min, the MITT medium in each well was discarded, 100 pt, of the DMSO was added, and the plate was shaken for 5 min to dissolve all crystals in each well. An absorbance of the sample at 562 nm was detected by a microplate reader. Each set of data was an average of three independent experimental results on the same sample.
Assay [2] has as its system 4T1 mouse breast cancer cells. As to the kind of experiment: Cytotoxicity (MTT) in combination with DOX. The class given is cell-based. To be noted: 48 h, sensitizer 5 μg/mL in the combination.
Procedure: as §1
The subject of assay [3] is B16F10 mouse melanoma cells. Briefly: Cytotoxicity (MTT) in combination with DOX. It is filed as cell-based. To be noted: B16-F10, 48 h, sensitizer 5 μg/mL in the combination.
Procedure: as §1
The subject of assay [4] is HePa1-6 mouse hepatoma cells. Briefly: Cytotoxicity (MTT) in combination with DOX. The class given is cell-based. As to conditions: 48 h, sensitizer 5 μg/mL in the combination.
Procedure: as §1
For another assay, the system named is H22 mouse hepatoma cells. Briefly: Cytotoxicity (MTT) in combination with DOX. It is filed as cell-based. To be noted: 48 h, sensitizer 5 μg/mL in the combination.
For assay [5], the system named is LLC mouse lung cancer cells. Briefly: Cytotoxicity (MTT) in combination with DOX. As to conditions: 48 h, sensitizer 5 μg/mL in the combination. It is filed as cell-based.
Procedure: as §1
For assay [6], the system named is MB49 mouse bladder cancer cells. As to the kind of experiment: Cytotoxicity (MTT) in combination with DOX. It is filed as cell-based. As to conditions: 48 h, sensitizer 5 μg/mL in the combination.
Procedure: as §1
In assay [7] the test system is P388 mouse lymphoma cells. Briefly: Cytotoxicity (MTT) in combination with DOX. The class given is cell-based. To be noted: 48 h, sensitizer 5 μg/mL in the combination.
Procedure: as §1
For another assay, the system named is C6 rat glioma cells. Briefly: Cytotoxicity (MTT) in combination with DOX. It is filed as cell-based. As to conditions: Glioma cell, 48 h, sensitizer 5 μg/mL in the combination.
For assay [8], the system named is BXPC-3 human pancreatic cancer cells. Briefly: Cytotoxicity (MTT) in combination with DOX. The class given is cell-based. To be noted: 48 h, sensitizer 5 μg/mL in the combination.
Procedure: as §1
Assay [9] concerns Hela human cervical cancer cells. As to the kind of experiment: Cytotoxicity (MTT) in combination with DOX. It is filed as cell-based. To be noted: 48 h, sensitizer 5 μg/mL in the combination.
Procedure: as §1
In assay [10] the test system is MDA-MB-231 human breast cancer cells. As to the kind of experiment: Cytotoxicity (MTT) in combination with DOX. The class given is cell-based. To be noted: 48 h, sensitizer 5 μg/mL in the combination.
Procedure: as §1
Assay [11] deals with A2780 Human ovarian cancer cells. Briefly: Cytotoxicity (MTT) in combination with DOX. The class given is cell-based. As to conditions: 48 h, sensitizer 5 μg/mL in the combination.
Procedure: as §1
Assay [12] deals with PC3 human prostate cancer cells. As to the kind of experiment: Cytotoxicity (MTT) in combination with DOX. It is filed as cell-based. As to conditions: 48 h, sensitizer 5 μg/mL in the combination.
Procedure: as §1
Assay [13] concerns HepG2 human hepatoma cells. As to the kind of experiment: Cytotoxicity (MTT) in combination with DOX. It is filed as cell-based. To be noted: 48 h, sensitizer 5 μg/mL in the combination.
Procedure: as §1
The subject of assay [14] is HGC-27 human gastric cancer cells. Briefly: Cytotoxicity (MTT) in combination with DOX. It is filed as cell-based. As to conditions: 48 h, sensitizer 5 μg/mL in the combination.
Procedure: as §1
The test system of assay [15] is CT26 mouse colon cancer cells. As to the kind of experiment: Cytotoxicity (MTT) in combination with chemotherapeutic drugs.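 Further: MTT read-out taken as absorbance at 562 nm after a 3 h dye incubation, medium-only wells as blank, values averaged over three independent experiments.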 As to conditions: Mus musculus, CT26, 48 h.
Procedure: as §1

Procedure for C6 rat glioma cells: as §1
Procedure for H22 mouse hepatoma cells: as §1

Usually IC50 stands for the concentration that inhibits the measured activity by half. Regarding `COc1cccc2c1C(=O)c1c(O)c3c(c(O)c1C2=O)C[C@@](O)(C(=O)CO)C[C@@H]3O[C@H]1C[C@H](N)[C@H](O)[C@H](C)O1` [DOX, doxorubicin], the IC50 in [1] amounted to 0.411 ± 0.017 µg/mL; in assay [2], 1.76 ± 0.221 µg/mL; in assay [3] it was 0.214 ± 0.011 µg/mL; in [4], 1.35 ± 0.331 µg/mL; with H22 mouse hepatoma cells, 5.13 ± 0.119 µg/mL; in assay [5] it was 0.088 ± 0.007 µg/mL. Moreover, the IC50 came out at 0.447 ± 0.022 µg/mL in assay [6]; 0.197 ± 0.029 µg/mL in [7]; 0.119 ± 0.026 µg/mL in the assay on C6 rat glioma cells; 14.2 ± 1.68 µg/mL in assay [8]; 2.77 ± 0.492 µg/mL in [9]; 3.57 ± 0.153 µg/mL in assay [10]. Besides, the IC50 in assay [11] was 10.1 ± 1.24 µg/mL; in [12], 2.32 ± 0.195 µg/mL; in assay [13], 3.45 ± 0.778 µg/mL; in [14], 1.82 ± 0.227 µg/mL; in [15], 0.256 ± 0.017 µg/mL.
